# Values quoted from earlier work as cited in publication PMC7838024 (Acta Pharmaceutica Sinica. B, 2020).
# Details: rats, doses from 0.5 to 1.5 mg/kg
structure (smiles),measurement,value
"CO[C@H]1C(=O)[C@]2(C)[C@@H](OC)C[C@H]3OC[C@@]3(OC(C)=O)[C@H]2[C@H](OC(=O)c2ccccc2)[C@]2(O)C[C@H](OC(=O)[C@H](O)[C@@H](NC(=O)OC(C)(C)C)c3ccccc3)C(C)=C1C2(C)C [CTX, cabazitaxel]",central nervous system toxicity,dose-dependent central nervous system toxicity
